Laboratory results published in paper PMC3430621, “HPLC–MS/MS Analysis of a Traditional Chinese Medical Formulation of Bu-Yang-Huan-Wu-Tang and Its Pharmacokinetics after Oral Administration to Rats” (PLoS ONE, 2012).
Read-outs that look alike come from different tables or passages of the source.

Legend:
[1] = Pharmacokinetics in conscious freely moving rats after oral administration of BYHWT extract (HPLC-MS/MS of plasma); type: in vivo, Sprague-Dawley rats; settings: for Cl / Cmax / Tmax / half-life: male, Sprague-Dawley
Excerpt: The protocol listed below has been reviewed and approved by the Institutional Animal Care and Use Committee (IACUC; approval number 1010409) by the Institutional Animal Experimentation Committee of the National Yang-Ming University. Male pathogen-free Sprague-Dawley rats (250±50 g body weight) were obtained from the Laboratory Animal Center of National Yang Ming University. The animals had free access to food (Laboratory rodent diet 5P14, PMI Feeds, Richmond, IN, USA) and water was allowed at all times. All animal experiments followed the National Yang-Ming University guidelines and procedures for the care of laboratory animals. […] Experimental rats were initially anesthetized with pentobarbital (50 mg/kg, i.p.), and polyethylene tubing was implanted in the right jugular vein for blood sampling. The tube crossed the subcutaneous tissue and was fixed at its exit from the dorsal neck region. The patency tubing was maintained by filling with heparinized saline (20 units/mL). After surgery, the rats were placed in experimental cages and allowed to recuperate for one day. The rats were kept fasted for 12 h and water were available ad libitum before the BYHWT administration. […] In our study, the dose of BYHWT (10 g/kg) was appropriate for oral administration in rats. […] The condensed blood collection in the absorption phase is to figure out the maximum concentration and the time when it reaches the maximum concentration. The time points in the elimination phase are not close. This strategy is commonly used in the pharmacokinetic studies but the total blood consumption should not be over 20% of body blood. In these experimental rats, the total blood sampling volume is within 20% during 12 h. Plasma was separated by centrifuging the blood sample at 6000 rpm for 10 min at 4°C. […] The samples were vortexed and centrifuged at 16,100×g for 10 min. In our micro-analysis, less than 200 μL is needed. Actually, the collected blood volume is around 120-150 μL for each time point. After centrifugation, the plasma samples (50 μL) were vortex-mixed with 100 μL of acetonitrile. The supernatants were collected and filtered. Around 20 μL aliquot of the supernatants was transferred into the vial for analysis by HPLC-MS/MS system. The acetonitrile but not the real sample was used in the needle pre-wash standard procedure [19]. The LC-MS/MS system consisted of an Agilent 1100 series LC with automatic liquid chromatographic sampler, injector, bi-pump and degasser; and Applied Biosystems/MDS Sciex API 3000 tandem quadrupole mass spectrometry equipped with electrospray ionization (ESI) interface using the following parameters: nebulizer gas (NEB):10, curtain gas (CUR): 7, collisionally activated dissociation gas (CAD): 12, ionspray voltage (IS): 5000 V, turbo ionspray temperature (TEM): 450°C. Nitrogen was used in all cases. The mass spectrometer was operated in the positive ion detection mode. […] The following linear gradient program was applied to the analyte with the mobile phase consisting of methanol (0.1% formic acid, solvent A) and NH4OAc (0.1% formic acid, solvent B): 0-1 min: 30-70% A; 1-2 min 70-90%; 2-8 min: 90-90%; 8-9 min: 90-30%, 9-18 min: 30-30%, v/v. […] The flow rate was maintained at […]. Pharmacokinetic parameters including maximum plasma concentration (Cmax), time to reach the maximum concentrations (Tmax), half-life (t1/2), area under concentration-time curve (AUC) and oral clearance (CL) were estimated by a non-compartmental analysis using the pharmacokinetic program, WinNonlin Standard Edition Version 1.1 (Scientific Consulting, Apex, NC, USA). All results were expressed as average mean ± standard deviation (S.D.). ANOVA was used to evaluate differences, and a value of P<0.05 was taken as statistically significant.

[2] = Stability of the analytes in rat plasma samples (freeze-thaw, short-term, long-term, autosampler); type: in vitro ADME; settings: n = 3; for Stability (%) Autosampler stability: autosampler 8°C 12 h; for Stability (%) Short-term stability: room temperature 6 h; for Stability (%) Freeze-thaw stability: three freeze-thaw cycles; for Stability (%) Long-term stability: −20°C 14 days
Protocol: Stability was also assessed using the low, medium and high concentrations of analytes. Freeze-thaw stability was assessed over three freeze-thaw cycles. Short-term stability was determined by placing the samples at room temperature for 6 h. Long-term stability was evaluated by analyzing samples kept at −20°C for 14 days. Autosampler stability was determined by maintaining the samples at the autosampler temperature (8°C) for 12 h. All stabilities were calculating as the ratio of average concentration and freshly prepared samples.

[3] = rat plasma, BYHWT extract 10 g/kg p.o.
[4] = po, rat plasma, BYHWT extract 10 g/kg p.o., n = 6, read-out: Cmax
[5] = po, rat plasma, BYHWT extract 10 g/kg p.o., n = 6, read-out: Tmax (converted)
[6] = po, rat plasma, BYHWT extract 10 g/kg p.o., n = 6, read-out: t1/2

SMILES | Stability (%) Autosampler stability ([2]; concentration 1 (µg/mL)) [%] | Stability (%) Short-term stability ([2]; concentration 1 (µg/mL)) [%] | Stability (%) Freeze-thaw stability ([2]; concentration 1 (µg/mL)) [%] | Stability (%) Long-term stability ([2]; concentration 1 (µg/mL)) [%] | Stability (%) Autosampler stability ([2]; concentration 10 (µg/mL)) [%] | Stability (%) Short-term stability ([2]; concentration 10 (µg/mL)) [%] | Stability (%) Freeze-thaw stability ([2]; concentration 10 (µg/mL)) [%] | Stability (%) Long-term stability ([2]; concentration 10 (µg/mL)) [%] | Stability (%) Autosampler stability ([2]; concentration 100 (µg/mL)) [%] | Stability (%) Short-term stability ([2]; concentration 100 (µg/mL)) [%] | Stability (%) Freeze-thaw stability ([2]; concentration 100 (µg/mL)) [%] | Stability (%) Long-term stability ([2]; concentration 100 (µg/mL)) [%] | absorption phase in the plasma concentration-time curve [1, 3] | Cmax [1, 4] [ng/mL] | Tmax [1, 5] [min] | half-life [1, 6] [min] | also measured
CC(=O)OC1C(O)COC(OC2CCC34CC35CCC3(C)C(C6(C)CCC(C(C)(C)O)O6)C(O)CC3(C)C5CC(OC3OC(CO)C(O)C(O)C3O)C4C2(C)C)C1OC(C)=O (stereo not shown) [Astragaloside I, astragaloside I] | −5.3±7.9 | −3.6±8.0 | 4.6±3.6 | −14±17 | 4.3±6.6 | −4.1±10 | 3.8±2.7 | −8.3±2.3 | −4.9±7.0 | −6.4±6.4 | −1.8±5.4 | −27±12 |  |  |  |  | Cl ([1]; rat, in vivo, po): 90.5 ± 14 mL/min/kg; Cmax ([1]; rat, in vivo, po, 10 g/kg): 55 ± 7.8 ng/mL; Tmax ([1]; rat, in vivo, po, 10 g/kg): 40 min; half-life ([1]; rat, in vivo, po, 10 g/kg): 166 ± 28 min; AUC ([1]; rat, in vivo, po, 10 g/kg): 277 ± 43.3 ng·h/mL
CC(=O)O[C@H]1[C@H](O[C@H]2CC[C@]34C[C@]35CC[C@]3(C)[C@@H]([C@@]6(C)CC[C@@H](C(C)(C)O)O6)[C@@H](O)C[C@@]3(C)[C@@H]5C[C@H](O[C@@H]3O[C@H](CO)[C@@H](O)[C@H](O)[C@H]3O)[C@H]4C2(C)C)OC[C@@H](O)[C@@H]1O [Astragaloside II, astragaloside II] | 13±10 | 2.4±12 | 4.4±3.6 | 8.7±10 | −0.3±11 | −1.3±1.9 | −2.3±0.8 | −0.8±16 | −5.4±13 | −6.8±5.7 | 0.4±1.2 | 1.7±21 |  |  |  |  | Cl ([1]; rat, in vivo, po): 129 ± 15 mL/min/kg; Cmax ([1]; rat, in vivo, po, 10 g/kg): 30 ± 4.9 ng/mL; Tmax ([1]; rat, in vivo, po, 10 g/kg): 37 min; half-life ([1]; rat, in vivo, po, 10 g/kg): 212 ± 14 min; AUC ([1]; rat, in vivo, po, 10 g/kg): 190 ± 38.3 ng·h/mL
CC(C)(O)[C@@H]1CC[C@](C)([C@H]2[C@@H](O)C[C@@]3(C)[C@@H]4C[C@H](O[C@@H]5O[C@H](CO)[C@@H](O)[C@H](O)[C@H]5O)[C@H]5C(C)(C)[C@@H](O[C@@H]6OC[C@@H](O)[C@H](O)[C@H]6O)CC[C@@]56C[C@@]46CC[C@]23C)O1 [Astragaloside IV, astragaloside IV] | 3.8±9.8 | 12±15 | −3.2±5.0 | −17±5.3 | 3.3 | 4.7±6.2 | −4.1±3.4 | −6.3±8.8 | −8.6±12 | 1.6±9.1 | 6.1±0.4 | 2.1±13.5 | double-peak absorption phase |  |  |  | Cmax ([1]; in vivo, po, rat plasma, BYHWT extract 10 g/kg p.o., n = 6, read-out: Cmax): 100 ± 16 ng/mL; Tmax ([1]; in vivo, po, rat plasma, BYHWT extract 10 g/kg p.o., n = 6, read-out: Tmax (converted)): 35 min; half-life ([1]; in vivo, po, rat plasma, BYHWT extract 10 g/kg p.o., n = 6, read-out: t1/2): 170 ± 8.3 min
COc1ccc(-c2coc3cc(O)ccc3c2=O)cc1O [Calycosin, calycosin] |  |  |  |  | −3.5±11 | 1.4±11 | 9.6±4.7 | 2.5±5.7 | −2.2±3.5 | 14±12 | 8.6±3.8 | 17±5.2 | single and plateau absorption phase | 1230 ± 171 | 40 | 75 ± 11 | AUC ([1]; rat plasma, BYHWT extract 10 g/kg p.o., n = 6): 5130 ± 1220 ng·h/mL; Stability (%) Autosampler stability ([2]; concentration 1000 (µg/mL)): 7.1±4.9%; Stability (%) Short-term stability ([2]; concentration 1000 (µg/mL)): 13±7.3%; Stability (%) Freeze-thaw stability ([2]; concentration 1000 (µg/mL)): 2.9±4.5%; Stability (%) Long-term stability ([2]; concentration 1000 (µg/mL)): 21±12%
COc1ccc(-c2coc3cc(O[C@@H]4O[C@H](CO)[C@@H](O)[C@H](O)[C@H]4O)ccc3c2=O)cc1O [Calycosin-7-O-β-D-glucoside, calycosin-7-O-β-D-glucoside] | −8.4±12 | 2.5±11 | 5.8±6.1 | 6.4±12 | 2.1±9.1 | 7.3±12 | 4.9±3.5 | 23±13 | 3.5±7.9 | −0.1±0.9 | 7.0±1.2 | 20±12 | single and plateau absorption phase | 18 ± 4.1 | 32 | 338 ± 132 | 
COc1ccc(-c2coc3cc(O)ccc3c2=O)cc1 [Formononetin, formononetin] |  |  |  |  | −13±4.1 | −3.4±12 | −4.9±3.8 | −13±5.5 | −4.6±11 | 1.1±10 | 5.8±10 | −12±7.5 | single and plateau absorption phase | 98 ± 17 | 38 | 175 ± 13 | Stability (%) Autosampler stability ([2]; concentration 1000 (µg/mL)): 0.8±12%; Stability (%) Short-term stability ([2]; concentration 1000 (µg/mL)): 1.5±10.4%; Stability (%) Freeze-thaw stability ([2]; concentration 1000 (µg/mL)): −3.5±6.0%; Stability (%) Long-term stability ([2]; concentration 1000 (µg/mL)): 1.0±6.4%
O=c1[nH]cnc2nc[nH]c12 [hypoxanthine] |  |  |  |  |  |  |  |  |  |  |  |  |  |  |  |  | observed in rat plasma after oral administration of BYHWT ([1]; preliminary experiments): could not be observed
